Test results reported in paper PMC5748531, “Antimycobacterial Activities of N-Substituted-Glycinyl 1H-1,2,3-Triazolyl Oxazolidinones and Analytical Method Development and Validation for a Representative Compound” (Scientia Pharmaceutica, 2017).
≈ marks a conversion by molar mass, not a printed value.

How the values were obtained:
Mtb H37Rv (SRI 1345) [1] = test: MIC broth microdilution, Mtb H37Rv; format: cell-based; conditions: Mycobacterium tuberculosis, 168 h, read-out: MIC H37Rv
in vitro = conditions: mouse
Mtb H37Rv (SRI 1345) [2] = test: Low-oxygen recovery assay (LORA), non-replicating persistence; format: cell-based, Mycobacterium tuberculosis; conditions: 7 days anaerobic then 7 days ambient, 37 °C
[3] = format: in vitro ADME; conditions: 90 min, 50 μg/mL
Description: Aliquots of 0.5 mL of plasma samples (calibration standards) were mixed with 200 μL aliquots of internal standard solution using appropriate concentration (10–90 μg/mL) for PH-189 concentrations. The samples were loaded unto solid phase extraction (SPE) cartridges on a vacuum 20 position extraction manifold (Waters). The cartridges were pre-conditioned with 1 mL of acetonitrile followed by 1 mL of water. The loaded cartridges were washed with 1 mL of acetonitrile and the analytes (PH-189 and internal standard) were eluted with acetonitrile into a 1.5 mL glass vials. The collected samples were filtered using Kinesis syringe membrane filters (Kinesis Ltd, St Neots, UK) (13 mm) and were used for injection and analysis. The PH-189/internal standard ratios were used to calculate calibration curve and to determine PH-189 concentration in human plasma after 90 min at 37 °C.
Accuracy and precision of the UHPLC method for PH-189 was evaluated by preparing six sets of PH-189 in blank human plasma within the concentration ranges of the calibration curve. Accuracy and precision were performed in triplicate using four concentration levels of 1, 10, 50, and 90 μg/mL. […] Freezer-stored samples were thawed, extracted, and analyzed as previously mentioned. […]

[4] = Stock standard solution stability; format: physicochemical; conditions: 100 μg/mL in acetonitrile, refrigerator (4 °C)
Description: Stock standard solutions of PH-189 and indapamide as internal standard were separately prepared by dissolving 10 mg of the compounds in 100 mL of acetonitrile to give stock concentrations of 100 μg/mL. Working solutions of PH-189 and internal standard were prepared by diluting the stock solutions with acetonitrile to obtain concentrations of 10 μg/mL and 90 μg/mL. Stock solutions were stable for at least 5 weeks when stored in a refrigerator (4 °C).

S. aureus = system: S. aureus; parameters: method as in PMID 23811087; conditions: S. aureus in vitro; cited from earlier work
Mtb H37Rv (SRI 1345) [5] = test: Minimal bactericidal concentration (MBC); format: cell-based; conditions: Mycobacterium tuberculosis, read-out: MBC H37Rv
[6] = system: intracellular (macrophage) Mtb H37Rv (SRI 1345) in J774 cells; test: Intracellular (macrophage) drug screening assay; format: cell-based, Mycobacterium tuberculosis; conditions: range at the three concentrations tested
[7] = Drug cytotoxicity control plate assay (MTT cell proliferation); conditions: mouse
[8] = system: Mtb H37Rv, INH-R, RMP-R and OFX-R Mtb; test: MIC screening, all Mtb strains tested; format: cell-based, Mycobacterium tuberculosis; conditions: range over H37Rv
[9] = Mycobacterium tuberculosis, H37RV, 168 h, read-out: LORA, lowest concentration that visually inhibits growth
[10] = MTT % Viability (High Conc.), high conc., same as in macrophage assay
[11] = MTT % Viability (Low Conc.), low conc., same as in macrophage assay
[12] = MTT % Viability (Mid Conc.), mid conc., same as in macrophage assay

Work on `Cc1cn(CC2CN(c3ccc(N4CCN(C(=O)CNC(=O)c5cccnc5)CC4)c(F)c3)C(=O)O2)nn1` (centres unmarked) [PH-185] yielded an MIC (Mtb H37Rv (SRI 1345) [1]) of 5.7 to 11.5 µM (≈ 2.98 to 6.01 µg/mL), a viability (in vitro; MTT % Viability (High Conc.)) of 39% and a viability (in vitro; MTT % Viability (Low Conc.)) of 88%. It also gave a viability (in vitro; MTT % Viability (Mid Conc.)) of 94%.

Compound `O=C(NCC(=O)N1CCN(c2ccc(N3CC(Cn4ccnn4)OC3=O)cc2F)CC1)c1cccnc1` (centres unmarked) [PH-195] has an MIC (Mtb H37Rv (SRI 1345) [1]) of 3.9 µM (≈ 1.98 µg/mL), a viability (in vitro; MTT % Viability (High Conc.)) of 71% and a viability (in vitro; MTT % Viability (Low Conc.)) of 100%. It also gave a viability (in vitro; MTT % Viability (Mid Conc.)) of 100%.

`CCOC(=O)CC(=O)NCC(=O)N1CCN(c2ccc(N3CC(Cn4cc(C)nn4)OC3=O)cc2F)CC1` (centres unmarked) [PH-150] gave an MIC (Mtb H37Rv (SRI 1345) [1]) of 5.8 µM (≈ 3.08 µg/mL), an MIC (Mtb H37Rv (SRI 1345) [2]; [9]) of over 58 µM and a viability (in vitro; MTT % Viability (High Conc.)) of 62%. The viability (in vitro; MTT % Viability (Low Conc.)) was 78% and the viability (in vitro; MTT % Viability (Mid Conc.)) was 82%.

With `O=C(NCC(=O)N1CCN(c2ccc(N3CC(Cn4ccnn4)OC3=O)cc2F)CC1)c1ccc([N+](=O)[O-])o1` (centres unmarked) [PH-189] the MIC (Mtb H37Rv (SRI 1345) [1]) was 0.5 µM (≈ 0.271 µg/mL), the “average amount of PH-189 found in human plasma” value [3] was 48.79 µg/mL and the “recovered from human plasma” value [3] was “more than 90%”. The “stock solutions stable for” value [4] was “at least 5 weeks”, the “MIC value in the presence of 50% human plasma” value (S. aureus) was “remained unchanged” and the viability (in vitro; MTT % Viability (High Conc.)) was 86%. It also gave a viability (in vitro; MTT % Viability (Low Conc.)) of 98% and a viability (in vitro; MTT % Viability (Mid Conc.)) of 88%.

Work on `CO[C@H]1/C=C/O[C@@]2(C)Oc3c(C)c(O)c4c(O)c(c(/C=N/N5CCN(C)CC5)c(O)c4c3C2=O)NC(=O)/C(C)=C\C=C\[C@H](C)[C@H](O)[C@@H](C)[C@@H](O)[C@@H](C)[C@H](OC(C)=O)[C@@H]1C` [RMP, Rifampicin, reference compound] yielded an MIC (Mtb H37Rv (SRI 1345) [1]) of 0.06 µM (≈ 0.0494 µg/mL), an MBC (Mtb H37Rv (SRI 1345) [5]) of 1.56 µM (≈ 1.28 µg/mL) and an MIC (Mtb H37Rv (SRI 1345) [2]; Mycobacterium tuberculosis, H37RV, 168 h, lowest concentration that visually inhibits growth, read-out: LORA) of 0.95 µM (≈ 0.782 µg/mL). The “Macrophage log reduction in Mtb, range” value [6] was 1.62–2.43, the viability ([7]; uninfected J774 macrophages, MTT % Viability (High Conc.), high conc., same as in macrophage assay) was 84% and the viability ([7]; uninfected J774 macrophages, MTT % Viability (Low Conc.), low conc., same as in macrophage assay) was 92%. It also gave a viability ([7]; uninfected J774 macrophages, MTT % Viability (Mid Conc.), mid conc., same as in macrophage assay) of 85% and a viability ([7]; uninfected J774 macrophages, MTT percent cell viability, range, range at the three concentrations tested) of 84 to 92%.

With `O=C(NCC(=O)N1CCN(c2ccc(N3CC(Cn4ccnn4)OC3=O)cc2F)CC1)c1cc([N+](=O)[O-])cc([N+](=O)[O-])c1` (centres unmarked) [PH-193] the MIC (Mtb H37Rv (SRI 1345) [1]) was 1.7 µM (≈ 1.02 µg/mL), the “MIC value range against all Mtb strains tested” value [8] was 0.052 to 3.3 µM and the viability [7, 10] was 74%. The viability [7, 11] was 100% and the viability [7, 12] was 100%.

`Cc1cn(CC2CN(c3ccc(N4CCN(C(=O)CNC(=O)C(Cl)Cl)CC4)c(F)c3)C(=O)O2)nn1` (centres unmarked) [PH-182] showed an MIC (Mtb H37Rv (SRI 1345) [1]) of 1.9 µM (≈ 1 µg/mL), an MIC (Mtb H37Rv (SRI 1345) [2]; [9]) of 0.015 to 5.7 µM (≈ 0.00793 to 3.01 µg/mL) and a viability (in vitro; MTT % Viability (High Conc.)) of 87%. It also gave a viability (in vitro; MTT % Viability (Low Conc.)) of 84% and a viability (in vitro; MTT % Viability (Mid Conc.)) of 90%.

Work on `Cc1cn(CC2CN(c3ccc(N4CCN(C(=O)CNC(=O)c5ccc([N+](=O)[O-])o5)CC4)c(F)c3)C(=O)O2)nn1` (centres unmarked) [PH-145] yielded an MIC (Mtb H37Rv (SRI 1345) [1]) of 0.5 µM (≈ 0.278 µg/mL), a viability (in vitro; MTT % Viability (High Conc.)) of 75% and a viability (in vitro; MTT % Viability (Low Conc.)) of 87%. The viability (in vitro; MTT % Viability (Mid Conc.)) was 93%.

Work on `NCC(=O)N1CCN(c2ccc(N3CC(Cn4ccnn4)OC3=O)cc2F)CC1` (centres unmarked) [PH-172] yielded an MIC (Mtb H37Rv (SRI 1345) [1]) of 3.6 µM (≈ 1.45 µg/mL), an MIC (Mtb H37Rv (SRI 1345) [2]; [9]) of over 58 µM and an MIC (Mtb H37Rv (SRI 1345) [2]; lowest concentration that visually inhibits growth, read-out: LORA) of over 58 µM. It also gave a viability (in vitro; MTT % Viability (High Conc.)) of 71%, a viability (in vitro; MTT % Viability (Low Conc.)) of 87% and a viability (in vitro; MTT % Viability (Mid Conc.)) of 72%.

`Cc1cn(CC2CN(c3ccc(N4CCN(C(=O)CN)CC4)c(F)c3)C(=O)O2)nn1` (centres unmarked) [PH-151] gave an MIC (Mtb H37Rv (SRI 1345) [1]) of 5.8 µM (≈ 2.42 µg/mL), an MIC (Mtb H37Rv (SRI 1345) [2]; [9]) of over 58 µM and a viability (in vitro; MTT % Viability (High Conc.)) of 74%. It also gave a viability (in vitro; MTT % Viability (Low Conc.)) of 83% and a viability (in vitro; MTT % Viability (Mid Conc.)) of 87%.

With `Cc1cn(CC2CN(c3ccc(N4CCN(C(=O)CNC(=O)c5cc([N+](=O)[O-])cc([N+](=O)[O-])c5)CC4)c(F)c3)C(=O)O2)nn1` (centres unmarked) [PH-181] the MIC (Mtb H37Rv (SRI 1345) [1]) was 3.3 µM (≈ 2.02 µg/mL), the “MIC value range against all Mtb strains tested” value [8] was 0.052 to 3.3 µM and the viability [7, 10] was 39%. For the same compound, the viability [7, 11] was 91% and the viability [7, 12] was 88%.

Compound `CC(=O)NCC(=O)N1CCN(c2ccc(N3CC(Cn4ccnn4)OC3=O)cc2F)CC1` (centres unmarked) [PH-165] has an MIC (Mtb H37Rv (SRI 1345) [1]) of 6.7 µM (≈ 2.98 µg/mL), an MIC (Mtb H37Rv (SRI 1345) [2]; [9]) of over 58 µM and a viability (in vitro; MTT % Viability (High Conc.)) of 84%. For the same compound, the viability (in vitro; MTT % Viability (Low Conc.)) was 91% and the viability (in vitro; MTT % Viability (Mid Conc.)) was 87%.

`CCOC(=O)CC(=O)NCC(=O)N1CCN(c2ccc(N3CC(Cn4ccnn4)OC3=O)cc2F)CC1` (centres unmarked) [PH-169] showed an MIC (Mtb H37Rv (SRI 1345) [1]) of 2.9 µM (≈ 1.5 µg/mL), a viability (in vitro; MTT % Viability (High Conc.)) of 73% and a viability (in vitro; MTT % Viability (Low Conc.)) of 76%. The viability (in vitro; MTT % Viability (Mid Conc.)) was 75%.
